The record followed here is ChEMBL document CHEMBL1126625, “7-Azetidinylquinolones as antibacterial agents. Synthesis and structure-activity relationships” (J Med Chem, 1993).

Holding throughout (format): functional
One experiment has as its system Bacillus cereus. The experiment can be described thus: Minimum inhibitory concentration (MIC) preventing growth of Bacillus cereus.
The next experiment deals with Enterococcus faecalis. Briefly: Minimum inhibitory concentration (MIC) preventing growth of Streptococcus faecalis ATCC 10541.
Another experiment deals with Morganella morganii. Briefly: Minimum inhibitory concentration (MIC) preventing growth of Morganella morganii.
A further experiment relates to Staphylococcus aureus. Briefly: Minimum inhibitory concentration (MIC) preventing growth of […].
The test system of the next experiment is Proteus vulgaris. The experiment can be described thus: Minimum inhibitory concentration (MIC) preventing growth of Proteus vulgaris.
A further experiment relates to Pseudomonas aeruginosa. The experiment can be described thus: Minimum inhibitory concentration (MIC)preventing growth of Pseudomonas aeruginosa.
In the next experiment the test system is Escherichia coli. Briefly: Minimum inhibitory concentration (MIC)preventing growth of Escherichia coli.
The next experiment deals with Klebsiella pneumoniae. The experiment can be described thus: Minimum inhibitory concentration (MIC)preventing growth of Klebsiella pneumoniae.
In experiment [1] the test system is Staphylococcus epidermidis. Briefly: Minimum inhibitory concentration (MIC) preventing growth of Staphylococcus epidermidis.
The next experiment relates to Enterobacter cloacae. The experiment can be described thus: Minimum inhibitory concentration (MIC)preventing growth of Enterobacter cloacae.
A further experiment relates to Bacillus subtilis. Briefly: Minimum inhibitory concentration (MIC) preventing growth of Bacillus subtilis.

Converted amounts (≈) assume the structure as drawn.

What is called MIC is the lowest concentration that inhibits growth of the organism. With `CC(=O)OC1CN(c2c(F)cc3c(=O)c(C(=O)O)cn(C4CC4)c3c2F)C1`, the MIC was found to be 0.12 µg/mL (≈ 0.317 µM) in the experiment with Bacillus cereus; 2 µg/mL (≈ 5.29 µM) in the experiment on Enterococcus faecalis; 0.25 µg/mL (≈ 0.661 µM) against Morganella morganii; 0.12 µg/mL (≈ 0.317 µM) in the experiment on Staphylococcus aureus; 0.12 µg/mL (≈ 0.317 µM) in the experiment with Proteus vulgaris; 2 µg/mL (≈ 5.29 µM) in the experiment on Pseudomonas aeruginosa. Further, the MIC with Escherichia coli turned out to be 0.12 µg/mL (≈ 0.317 µM); in the experiment with Klebsiella pneumoniae it was 0.015 µg/mL (≈ 0.0396 µM); in experiment [1] it was 0.12 µg/mL (≈ 0.317 µM); in the experiment with Enterobacter cloacae, 0.12 µg/mL (≈ 0.317 µM); with Bacillus subtilis it was 0.015 µg/mL (≈ 0.0396 µM).

Regarding `CC1(N)CN(c2cc3c(cc2F)c(=O)c2c(=O)[nH]sc2n3C2CC2)C1`, the MIC with Bacillus cereus stood at 0.03 µg/mL (≈ 0.0832 µM); against Enterococcus faecalis it was 0.12 µg/mL (≈ 0.333 µM); against Morganella morganii, 0.015 µg/mL (≈ 0.0416 µM); with Staphylococcus aureus, 0.06 µg/mL (≈ 0.166 µM); with Proteus vulgaris it was 0.06 µg/mL (≈ 0.166 µM); against Pseudomonas aeruginosa, 0.25 µg/mL (≈ 0.694 µM). For the same compound, the MIC against Escherichia coli stood at 0.015 µg/mL (≈ 0.0416 µM); against Klebsiella pneumoniae, 0.015 µg/mL (≈ 0.0416 µM); in experiment [1], 0.03 µg/mL (≈ 0.0832 µM); in the experiment with Enterobacter cloacae, 0.015 µg/mL (≈ 0.0416 µM); with Bacillus subtilis it was 0.015 µg/mL (≈ 0.0416 µM).

For the compound `NC(=O)C1CN(c2c(F)cc3c(=O)c(C(=O)O)cn(C4CC4)c3c2F)C1`, the MIC with Bacillus cereus amounted to 0.25 µg/mL (≈ 0.688 µM); against Enterococcus faecalis, 0.5 µg/mL (≈ 1.38 µM); with Morganella morganii, 0.25 µg/mL (≈ 0.688 µM); with Staphylococcus aureus, 0.25 µg/mL (≈ 0.688 µM); against Proteus vulgaris it was 0.25 µg/mL (≈ 0.688 µM); in the experiment on Pseudomonas aeruginosa it was 4 µg/mL (≈ 11 µM). For the same compound, the MIC in the experiment on Escherichia coli was 0.25 µg/mL (≈ 0.688 µM); with Klebsiella pneumoniae, 0.06 µg/mL (≈ 0.165 µM); in experiment [1] it was 0.5 µg/mL (≈ 1.38 µM); in the experiment on Enterobacter cloacae, 0.25 µg/mL (≈ 0.688 µM); in the experiment on Bacillus subtilis it was 0.06 µg/mL (≈ 0.165 µM).

Turning to `CC1(N)CN(c2c(F)cc3c(=O)c4c(=O)[nH]sc4n(C4CC4)c3c2F)C1`, the MIC is 0.12 µg/mL (≈ 0.317 µM) with Bacillus cereus; 0.5 µg/mL (≈ 1.32 µM) against Enterococcus faecalis; 0.06 µg/mL (≈ 0.159 µM) against Morganella morganii; 0.12 µg/mL (≈ 0.317 µM) against Staphylococcus aureus; 0.12 µg/mL (≈ 0.317 µM) against Proteus vulgaris; 0.5 µg/mL (≈ 1.32 µM) in the experiment on Pseudomonas aeruginosa. The MIC against Escherichia coli was found to be 0.06 µg/mL (≈ 0.159 µM); with Klebsiella pneumoniae, 0.06 µg/mL (≈ 0.159 µM); in experiment [1], 0.06 µg/mL (≈ 0.159 µM); in the experiment on Enterobacter cloacae, 0.06 µg/mL (≈ 0.159 µM); against Bacillus subtilis, 0.03 µg/mL (≈ 0.0793 µM).

For the compound `CNC1(C)CN(c2nc3c(cc2F)c(=O)c(C(=O)O)cn3C(C)(C)C)C1`, the MIC in the experiment with Bacillus cereus is 0.06 µg/mL (≈ 0.166 µM); in the experiment with Enterococcus faecalis, 1 µg/mL (≈ 2.76 µM); in the experiment on Morganella morganii it was 0.25 µg/mL (≈ 0.69 µM); against Staphylococcus aureus, 0.12 µg/mL (≈ 0.331 µM); against Proteus vulgaris it was 0.25 µg/mL (≈ 0.69 µM); against Pseudomonas aeruginosa it was 2 µg/mL (≈ 5.52 µM). Also, the MIC in the experiment on Escherichia coli was 0.06 µg/mL (≈ 0.166 µM); with Klebsiella pneumoniae, 0.015 µg/mL (≈ 0.0414 µM); in experiment [1], 0.12 µg/mL (≈ 0.331 µM); in the experiment on Enterobacter cloacae, 0.12 µg/mL (≈ 0.331 µM); with Bacillus subtilis it was 0.015 µg/mL (≈ 0.0414 µM).

Take `CN(C)C1CN(c2nc3c(cc2F)c(=O)c(C(=O)O)cn3C2CC2)C1`: the MIC in the experiment with Bacillus cereus worked out at 0.12 µg/mL (≈ 0.346 µM); against Enterococcus faecalis it was 2 µg/mL (≈ 5.77 µM); against Morganella morganii it was 0.12 µg/mL (≈ 0.346 µM); against Staphylococcus aureus it was 0.25 µg/mL (≈ 0.722 µM); with Proteus vulgaris, 0.12 µg/mL (≈ 0.346 µM); against Pseudomonas aeruginosa, 2 µg/mL (≈ 5.77 µM). The MIC against Escherichia coli was 0.06 µg/mL (≈ 0.173 µM); with Klebsiella pneumoniae, 0.12 µg/mL (≈ 0.346 µM); in experiment [1], 0.12 µg/mL (≈ 0.346 µM); with Enterobacter cloacae, 0.12 µg/mL (≈ 0.346 µM); in the experiment with Bacillus subtilis, 0.015 µg/mL (≈ 0.0433 µM).

With `O=C(O)c1cn(C2CC2)c2cc(N3CC(O)C3)c(F)cc2c1=O`, the MIC with Bacillus cereus turned out to be 0.12 µg/mL (≈ 0.377 µM); in the experiment on Enterococcus faecalis it was 1 µg/mL (≈ 3.14 µM); in the experiment with Morganella morganii, 0.25 µg/mL (≈ 0.785 µM); against Staphylococcus aureus, 0.12 µg/mL (≈ 0.377 µM); with Proteus vulgaris, 0.12 µg/mL (≈ 0.377 µM); in the experiment on Pseudomonas aeruginosa, 2 µg/mL (≈ 6.28 µM). The MIC in the experiment on Escherichia coli amounted to 0.12 µg/mL (≈ 0.377 µM); against Klebsiella pneumoniae it was 0.12 µg/mL (≈ 0.377 µM); in experiment [1], 0.12 µg/mL (≈ 0.377 µM); against Enterobacter cloacae, 0.12 µg/mL (≈ 0.377 µM); against Bacillus subtilis, 0.015 µg/mL (≈ 0.0471 µM).

On to `CC1(O)CN(c2cc3c(cc2F)c(=O)c(C(=O)O)cn3C2CC2)C1`, for which the MIC with Bacillus cereus worked out at 0.12 µg/mL (≈ 0.361 µM); against Enterococcus faecalis it was 1 µg/mL (≈ 3.01 µM); against Morganella morganii it was 0.25 µg/mL (≈ 0.752 µM); against Staphylococcus aureus it was 0.12 µg/mL (≈ 0.361 µM); in the experiment with Proteus vulgaris, 0.12 µg/mL (≈ 0.361 µM); in the experiment with Pseudomonas aeruginosa, 2 µg/mL (≈ 6.02 µM). Moreover, the MIC in the experiment on Escherichia coli is 0.25 µg/mL (≈ 0.752 µM); in the experiment on Klebsiella pneumoniae, 0.06 µg/mL (≈ 0.181 µM); in experiment [1] it was 0.12 µg/mL (≈ 0.361 µM); against Enterobacter cloacae, 0.12 µg/mL (≈ 0.361 µM); against Bacillus subtilis it was 0.06 µg/mL (≈ 0.181 µM).

`CC1(CN)CN(c2cc3c(cc2F)c(=O)c(C(=O)O)cn3C2CC2)C1`: the minimum inhibitory concentration (MIC) against Bacillus cereus was 0.12 µg/mL (≈ 0.347 µM); with Enterococcus faecalis, 0.5 µg/mL (≈ 1.45 µM); against Morganella morganii it was 0.12 µg/mL (≈ 0.347 µM); with Staphylococcus aureus, 0.25 µg/mL (≈ 0.724 µM); against Proteus vulgaris it was 0.12 µg/mL (≈ 0.347 µM); against Pseudomonas aeruginosa, 1 µg/mL (≈ 2.9 µM). Further, the MIC against Escherichia coli turned out to be 0.12 µg/mL (≈ 0.347 µM); in the experiment with Klebsiella pneumoniae, 0.25 µg/mL (≈ 0.724 µM); in experiment [1], 0.25 µg/mL (≈ 0.724 µM); with Enterobacter cloacae, 0.25 µg/mL (≈ 0.724 µM); against Bacillus subtilis, 0.06 µg/mL (≈ 0.174 µM).

As for `CC1(O)CN(c2c(F)cc3c(=O)c(C(=O)O)cn(C4CC4)c3c2F)C1`, the minimal inhibitory concentration (MIC) with Bacillus cereus was determined as 0.25 µg/mL (≈ 0.714 µM); in the experiment with Enterococcus faecalis it was 1 µg/mL (≈ 2.85 µM); with Morganella morganii it was 0.5 µg/mL (≈ 1.43 µM); in the experiment with Staphylococcus aureus, 0.25 µg/mL (≈ 0.714 µM); with Proteus vulgaris it was 0.5 µg/mL (≈ 1.43 µM); against Pseudomonas aeruginosa it was 4 µg/mL (≈ 11.4 µM). Also, the MIC in the experiment with Escherichia coli was found to be 0.5 µg/mL (≈ 1.43 µM); with Klebsiella pneumoniae it was 0.5 µg/mL (≈ 1.43 µM); in experiment [1], 0.25 µg/mL (≈ 0.714 µM); with Enterobacter cloacae it was 0.5 µg/mL (≈ 1.43 µM); in the experiment on Bacillus subtilis, 0.015 µg/mL (≈ 0.0428 µM).
